Data set [1] addresses T1, human tenascin-C (Homo sapiens, UniProt P24821). The data set is described as follows: Competition filter binding assay against 99mTc-TTA1-MAG2. The settings on record: 2 nM human TN-C, 1 nM 99mTc-TTA1-MAG2, competed with unlabeled aptamer, 37° C., 15 min. As for the experimental part:
A competition filter binding assay was carried out in order to determine binding constants (EC50). Samples of 2 nM human TN-C were incubated with 1 nM ^99mTc-TTA1-MAG2 in TBSMC buffer (20 mM Tris, pH 7.4; 137 mM NaCl; 1 mM CaCl2; 1 mM MgCl2) and the binding competed with varying concentrations of unlabeled aptamer (see pipetting scheme in FIG. 9.1). Incubation was carried out at 37° C. for 15 min. Subsequently, the solutions were pipetted on a Minifold Device equipped with a supported nitrocellulose membrane and Whatman filter paper and were washed with buffer using vacuum. Residual radioactivity on the filter due to tenascin-C bound labeled aptamer was quantified using a Phosphorimager. EC50 values were calculated using GraphPadPrism 3.02 (San Diego, Calif., USA) plotting one-side competition non-linear regression curves.

Data set [2] addresses T1, human tenascin-C. The note with it: cited from earlier work.

Where two headings read alike, the source gives them in different places.

T1 sequence (P24821 23-2201): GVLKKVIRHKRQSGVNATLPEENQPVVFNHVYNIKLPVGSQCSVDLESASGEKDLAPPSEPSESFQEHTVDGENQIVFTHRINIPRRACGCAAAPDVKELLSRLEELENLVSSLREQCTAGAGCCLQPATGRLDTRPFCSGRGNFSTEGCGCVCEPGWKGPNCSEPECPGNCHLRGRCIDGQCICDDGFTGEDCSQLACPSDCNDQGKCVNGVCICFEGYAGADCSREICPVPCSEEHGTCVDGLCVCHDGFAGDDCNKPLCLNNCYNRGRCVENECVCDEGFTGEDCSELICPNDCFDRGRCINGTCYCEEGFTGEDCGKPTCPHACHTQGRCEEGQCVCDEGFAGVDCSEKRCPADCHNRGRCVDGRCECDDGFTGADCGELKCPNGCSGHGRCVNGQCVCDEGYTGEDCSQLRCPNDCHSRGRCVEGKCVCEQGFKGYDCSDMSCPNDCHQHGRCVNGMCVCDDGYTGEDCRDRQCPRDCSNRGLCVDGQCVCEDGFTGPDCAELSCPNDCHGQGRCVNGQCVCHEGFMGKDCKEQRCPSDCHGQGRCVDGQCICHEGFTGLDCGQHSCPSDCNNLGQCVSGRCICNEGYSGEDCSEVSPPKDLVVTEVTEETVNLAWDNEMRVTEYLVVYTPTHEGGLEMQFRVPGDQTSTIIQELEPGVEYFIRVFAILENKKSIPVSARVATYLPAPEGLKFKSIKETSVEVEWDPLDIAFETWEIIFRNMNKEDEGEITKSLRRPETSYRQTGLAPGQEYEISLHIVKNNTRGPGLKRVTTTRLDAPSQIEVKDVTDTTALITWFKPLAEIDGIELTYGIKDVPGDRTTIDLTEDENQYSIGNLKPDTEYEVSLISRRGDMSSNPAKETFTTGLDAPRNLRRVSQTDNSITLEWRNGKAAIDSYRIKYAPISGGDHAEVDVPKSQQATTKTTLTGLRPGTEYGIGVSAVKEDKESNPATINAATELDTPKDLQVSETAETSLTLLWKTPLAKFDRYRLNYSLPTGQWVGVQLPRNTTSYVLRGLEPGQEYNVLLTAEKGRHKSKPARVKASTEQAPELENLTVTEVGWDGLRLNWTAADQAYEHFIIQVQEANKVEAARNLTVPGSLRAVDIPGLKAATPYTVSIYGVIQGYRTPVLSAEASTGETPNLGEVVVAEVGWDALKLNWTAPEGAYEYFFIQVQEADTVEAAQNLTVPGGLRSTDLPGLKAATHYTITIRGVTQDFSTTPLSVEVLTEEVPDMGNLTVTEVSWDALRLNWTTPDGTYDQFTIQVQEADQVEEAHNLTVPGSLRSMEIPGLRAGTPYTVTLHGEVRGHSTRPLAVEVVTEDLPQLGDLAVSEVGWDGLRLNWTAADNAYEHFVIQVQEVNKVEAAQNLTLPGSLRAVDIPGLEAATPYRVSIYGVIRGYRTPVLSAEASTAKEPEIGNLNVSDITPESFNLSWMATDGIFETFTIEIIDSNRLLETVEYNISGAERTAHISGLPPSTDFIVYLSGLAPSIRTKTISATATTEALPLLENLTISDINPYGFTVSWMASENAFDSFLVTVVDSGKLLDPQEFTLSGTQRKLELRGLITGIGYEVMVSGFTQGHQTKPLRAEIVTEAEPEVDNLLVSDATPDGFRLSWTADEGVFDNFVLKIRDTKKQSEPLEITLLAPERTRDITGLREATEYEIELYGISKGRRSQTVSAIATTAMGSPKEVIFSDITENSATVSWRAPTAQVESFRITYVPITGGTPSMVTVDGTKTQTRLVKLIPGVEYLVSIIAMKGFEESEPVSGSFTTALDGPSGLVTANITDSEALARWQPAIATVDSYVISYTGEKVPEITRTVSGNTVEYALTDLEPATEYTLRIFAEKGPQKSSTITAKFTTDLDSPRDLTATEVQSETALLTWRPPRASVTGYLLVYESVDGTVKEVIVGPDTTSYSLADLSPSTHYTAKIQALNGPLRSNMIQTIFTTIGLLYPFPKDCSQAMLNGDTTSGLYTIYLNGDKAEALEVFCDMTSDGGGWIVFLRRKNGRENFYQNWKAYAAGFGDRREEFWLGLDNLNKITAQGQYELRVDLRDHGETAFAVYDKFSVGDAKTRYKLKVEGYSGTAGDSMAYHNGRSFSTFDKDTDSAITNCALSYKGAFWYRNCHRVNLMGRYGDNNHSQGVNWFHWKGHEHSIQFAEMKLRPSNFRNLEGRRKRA

As a reminder, the EC50 is the concentration needed to bring the measured effect to its halfway point. Low readings indicate higher potency in that assay, high ones lower potency in that assay. “5′-(aminomodifier C2 dT)-mA mGmGmG mAmGG mAfCmG-(CH2CH2O)6-fCGfU fCGfC fCGfU mAmAfU mGmGmA fUmGfU fUfUfU mGfCfU fCfCfC fUmG-3′-3′-T (chain 1 AGGGAGGACG; chain 2 CGUCGCCGUAAUGGAUGUUUUGCUCCCUG; 2'-OMe and 2'-F mix, some positions unassigned, 5' amino-C2 dT, hexaethylene glycol spacer, 3'-3' dT, further chemistry not given here) [TTA5]”: the response with human tenascin-C [1] was half-maximal at 39 nM (EC50).

For orientation: Kd means the equilibrium constant for the complex coming apart. In the data set with human tenascin-C [1], “5′-NH2-C6-O-PO2-O-GGG AGG ACG-(CH2CH2O)6-CGUCGCCGUAAUGGAUGUUUUGCUCCCUG-3′-3′-T (CGUCGCCGUAAUGGAUGUUUUGCUCCCUG; 5' aminohexyl, hexaethylene glycol spacer, 3'-3' inverted dT, chemistry not fully specified) [TTA1]” came in with a concentration giving a half-maximal response (EC50) of 6 nM. For the same substance, the Kd is 5 nM with human tenascin-C [2] (final synthetic oligonucleotide, Hicke et al., read-out: KD) and 5 nM with human tenascin-C [2] (human tenascin-C, read-out: binding affinity KD).

On to “5′-NH2-C6-O-SPO-O-mGmGmG mAmGG mAfCmG-(CH2CH2O)6-fCGfU fCGfC fCGfU mAmAfU mGmGmA fUmGfU fUfUfU mGfCfU fCfCfC fUmG-3′-3′-T (CGUCGCCGUAAUGGAUGUUUUGCUCCCUG; 5' aminohexyl phosphorothioate, 2'-OMe/2'-F, PEG spacer, inverted dT, chemistry not fully specified) [TTA6]”, for which the EC50 with human tenascin-C [1] came to 14 nM.

“5′-mGmGmG mAmGmG mAfCrG-(CH2OCH2)6-fCGfU fCGfC fCGfU mAmAfU mGmGmA fUmGfU fUfUfU mGmCmU mCmCmC-(CH2)6NH2-3′ (CGUCGCCGUAAUGGAUGUUUUGCUCCC; 2'-OMe/2'-F, PEG spacer, 3' aminohexyl, chemistry not fully specified) [TTA8]” had an EC50 in the data set with human tenascin-C [1] of 14 nM.

Regarding “5′-LGLGLG LALGmG mAfCrG-(CH2OCH2)6-fCGfU fCGfC fCGfU mAmAfU mGmGmA fUmGfU fUfUfU mGLCLU LCLCLC-(CH2)6NH2-3′ (CGUCGCCGUAAUGGAUGUUUUG; LNA/2'-OMe/2'-F, PEG spacer, 3' aminohexyl, chemistry not fully specified) [TTA7]”, the EC50 with human tenascin-C [1] came to 2 nM.

Take “5′-NH2-C6-O-PO2-O-mGmGmG mAmGG mAfCmG-(CH2CH2O)6-fCGfU fCGfC fCGfU mAmAfU mGmGmA fUmGfU fUfUfU mGfCfU fCfCfC UmG-3′-3′-T (CGUCGCCGUAAUGGAUGUUUUGCUCCCUG; 2'-OMe/2'-F, 5' aminohexyl, PEG spacer, 3' inverted dT, chemistry not fully specified) [TTA2]”: in the data set with human tenascin-C [1], the response was half-maximal at 31 nM (EC50). This EC50 lies about 16-fold higher than the previous one.

Turning to “5′-NH2-C6-O-PO2-O-mGmGmG mAmGG mAfCmG-(CH2CH2O)6-fCGfU fCGfC fCGfU mAmAfU mGmGmA fUmGfU fUfUfU mGfCfU fCfCfC UG-3′-3′-T (CGUCGCCGUAAUGGAUGUUUUGCUCCCUG; 2'-OMe/2'-F, 5' aminohexyl, PEG spacer, 3' inverted dT, chemistry not fully specified) [TTA3]”, the EC50 with human tenascin-C [1] is 19 nM.

For the substance “5′-mGmGmG mAmGG mAfCmG-(CH2CH2O)6-fCGfU fCGfC fCGfU mAmAfU mGmGmA fUmGfU fUfUfU mGfCfU fC(C6-NH2)CfC-3′-3′-T (CGUCGCCGUAAUGGAUGUUUUGCUC; 2'-OMe/2'-F, internal C6-amine, PEG spacer, 3' inverted dT, chemistry not fully specified) [TTA4]”, the EC50 in the data set with human tenascin-C [1] was found to be 20 nM. The EC50 values of the last two substances are within 1.5-fold of each other.

Source of the values: patent US20090068103A1, “APTAMERS LABELED WITH 68GA” (priority 2006, published 2009).
